Results taken from US20260102383A1, “LPAR1 Inhibitors” (AbbVie Inc., priority 2024, published 2026).
Where two headings read alike, the source gives them in different places.

Target: T1, human LPAR1 (Homo sapiens, UniProt Q92633)
T1 construct: host or cells: TangoEDG2-bla U2OS cells
Experiment: Arrestin assay (Arrestin Reporter EDG2-bla U2OS), inhibition of LPA-stimulated signal
Type: cell-based
Settings: TangoEDG2-bla U2OS cells expressing human LPAR1, 0.25 μM LPA
In short: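 TangoEDG2-bla U2OS cells (1×10^4/well, plated 18-20 h) were preincubated 1 h at 37 °C with compound (12-point, 3-fold, 10 μM to 0.00006 μM), then stimulated 3 h with 0.25 μM LPA final. LiveBLAzer FRET B/G 460/530 nm emission ratio gave % inhibition; IC50 from 4-parameter variable-slope fit.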

[1] = read-out: Arrestin Reporter EDG2-bla U2OS Human Merged IC50

T1 sequence (Q92633 whole entry): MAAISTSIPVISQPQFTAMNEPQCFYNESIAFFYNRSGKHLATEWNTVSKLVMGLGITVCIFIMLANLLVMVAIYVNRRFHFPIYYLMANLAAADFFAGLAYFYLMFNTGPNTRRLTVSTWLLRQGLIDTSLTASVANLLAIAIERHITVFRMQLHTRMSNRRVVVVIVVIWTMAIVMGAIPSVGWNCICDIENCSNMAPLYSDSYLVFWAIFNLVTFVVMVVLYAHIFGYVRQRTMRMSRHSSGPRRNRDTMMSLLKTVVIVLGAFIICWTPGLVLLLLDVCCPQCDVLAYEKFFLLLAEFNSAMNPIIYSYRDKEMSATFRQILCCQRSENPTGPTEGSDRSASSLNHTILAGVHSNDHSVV

Row | Structure (SMILES) | IC50 (read-out: Arrestin Reporter EDG2-bla U2OS Human IC50) | IC50 [1]
1 | CC1(C)OCc2cnn(C3(C(=O)Nc4ccc(Cl)cc4OC(F)F)CCN(CC4(C(=O)O)CCOCC4)CC3)c21 [Compound 84, 4-[[4-[[4-chloro-2-(difluoromethoxy)phenyl]carbamoyl]-4-(6,6-dimethyl-4H-furo[3,4-c]pyrazol-1-yl)-1-piperidyl]methyl]tetrahydropyran-4-carboxylic acid] | 57.2 nM | 
2 | CC(C)c1ccnn1C1(C(=O)Nc2ccc(Cl)cc2OC(F)F)CCN([C@@H]2CO[C@@H](C(=O)O)C2)CC1 [Compound 138, (2R,4S)-4-[4-[[4-chloro-2-(difluoromethoxy)phenyl]carbamoyl]-4-(5-isopropylpyrazol-1-yl)-1-piperidyl]tetrahydrofuran-2-carboxylic acid] |  | 72 nM
3 | COCC[C@H](CN1CCC(C(=O)Nc2ccc(Cl)cc2OC(F)F)(n2ncc(F)c2C(C)C)CC1)C(=O)O [Compound 191, (2R)-2-[[4-[[4-chloro-2-(difluoromethoxy)phenyl]carbamoyl]-4-(4-fluoro-5-isopropyl-pyrazol-1-yl)-1-piperidyl]methyl]-4-methoxy-butanoic acid] |  | 33.4 nM
4 | CC(C)OC(=O)N1CCC(CN2CCC(C(=O)Nc3ccc(Cl)cc3OC(F)F)(n3nccc3C(C)C)CC2)(C(=O)O)CC1 [Compound 88] |  | 13.3 nM
5 | CC(C)c1ccnn1C1(C(=O)Nc2ccc(Cl)cc2OC(F)F)CCN(CC(C(=O)O)C(C)O)CC1 (centres unmarked) [Compound 203, 2-[[4-[[4-chloro-2-(difluoromethoxy)phenyl]carbamoyl]-4-(5-isopropylpyrazol-1-yl)-1-piperidyl]methyl]-3-hydroxy-butanoic acid] |  | 66.6 nM
6 | COC1CC(C(CN2CCC(C(=O)Nc3ccc(Cl)cc3OC(F)F)(n3nccc3C(C)C)CC2)C(=O)O)C1 (centres unmarked) [Compound 200, 3-[4-[[4-chloro-2-(difluoromethoxy)phenyl]carbamoyl]-4-(5-isopropylpyrazol-1-yl)-1-piperidyl]-2-(3-methoxycyclobutyl) propanoic acid] |  | 37.7 nM
7 | CC(C)c1ccnn1C1(C(=O)Nc2ccc(Cl)cc2OC(F)F)CCN(CC2(C(=O)O)CCN(C(=O)C3CCOCC3)CC2)CC1 [Compound 71, 4-[[4-[[4-chloro-2-(difluoromethoxy)phenyl]carbamoyl]-4-(5-isopropylpyrazol-1-yl)-1-piperidyl]methyl]-1-(tetrahydropyran-4-carbonyl)piperidine-4-carboxylic acid] |  | 105 nM
8 | CC1(C)CCc2cnn(C3(C(=O)Nc4ccc(Cl)cc4OC(F)F)CCN(C[C@@H]4CC[C@H]4C(=O)O)CC3)c21 [Compound 115, (1R.2R)-2-[[4-[[4-chloro-2-(difluoromethoxy)phenyl]carbamoyl]-4-(6,6-dimethyl-4,5-dibydrocyclopenta[c]pyrazol-1-yl)-1-piperidyl]methyl] cyclobutanecarboxylic acid] |  | 82.5 nM
9 | CC(C)c1ccnn1C1(C(=O)Nc2ccc(Cl)cc2OC(F)F)CCN(CC2(CC(=O)O)CCOCC2)CC1 [Compound 51, 2-[4-[[4-[[4-chloro-2-(difluoromethoxy)phenyl]carbamoyl]-4-(5-isopropylpyrazol-1-yl)-1-piperidyl]methyl]tetrahydropyran-4-yl]acetic acid] |  | 56.6 nM
10 | CC(C)c1ccnn1C1(C(=O)Nc2ccc(Cl)cc2OC(F)F)CCN(C[C@@]2(C(=O)O)CCOC2)CC1 [Compound 24, (3S)-3-[[4-[[4-chloro-2-(difluoromethoxy)phenyl]carbamoyl]-4-(5-isopropylpyrazol-1-yl)-1-piperidyl]methyl] tetrabydrofuran-3-carboxylic acid] |  | 24.7 nM
11 | CC(C)c1ccnn1C1(C(=O)Nc2ccc(Cl)cc2OC(F)F)CCN(CC2(C(=O)O)CCN(C(=O)C34CC(C#N)(C3)C4)CC2)CC1 [Compound 80, 4-[[4-[[4-chloro-2-(difluoromethoxy)phenyl]carbamoyl]-4-(5-isopropylpyrazol-1-yl)-1-piperidyl]methyl]-1-(3-cyanobicyclo[1.1.1]pentane-1-carbonyl)piperidine-4-carboxylic acid] |  | 129 nM
12 | COc1cnn(C[C@@H](CN2CCC(C(=O)Nc3ccc(Cl)cc3OC(F)F)(n3nccc3C(C)C)CC2)C(=O)O)c1 [Compound 201, (2R)-2-[[4-[[4-chloro-2-(difluoromethoxy)phenyl]carbamoyl]-4-(5-isopropylpyrazol-1-yl)-1-piperidyl]methyl]-3-(4-methoxypyrazol-1-yl)propanoic acid] |  | 30.6 nM
13 | CC(C)c1ccnn1C1(C(=O)Nc2ccc(Cl)cc2OC(F)F)CCN(C[C@@]2(C(=O)O)CCCCO2)CC1 (single isomer, unassigned) [Compound 38] |  | 18.8 nM
14 | CCOC(=O)N1CC[C@@](CN2CCC(C(=O)Nc3ccc(Cl)cc3OC(F)F)(n3nccc3C(C)C)CC2)(C(=O)O)C1 [Compound 55, (3S)-3-[[4-[[4-chloro-2-(difluoromethoxy)phenyl]carbamoyl]-4-(5-isopropylpyrazol-1-yl)-1-piperidyl]methyl]-1-ethoxycarbonyl-pyrrolidine-3-carboxylic acid] |  | 4.57 nM
15 | CC(C)c1ccnn1C1(C(=O)Nc2ccc(Cl)cc2OC(F)F)CCN(C[C@H](C(=O)O)N2C[C@@H](C)O[C@H](C)C2)CC1 [Compound 159, (2R)-3-[4-[[4-chloro-2-(difluoromethoxy)phenyl]carbamoyl]-4-(5-isopropylpyrazol-1-yl)-1-piperidyl]-2-[(2R,6R)-2,6-dimethylmorpholin-4-yl]propanoic acid] |  | 326 nM
16 | COC[C@H](CN1CCC(C(=O)Nc2ccc(Cl)cc2OC(F)F)(n2ncc3c2C(C)(C)OC3)CC1)C(=O)O [Compound 208, (2S)-2-[[4-[[4-chloro-2-(difluoromethoxy)phenyl]carbamoyl]-4-(6,6-dimethyl-4H-furo[3,4-c]pyrazol-1-yl)-1-piperidyl]methyl]-3-methoxy-propanoic acid] |  | 94.4 nM
17 | CC(C)c1ccnn1C1(C(=O)Nc2ccc(Cl)cc2OC(F)F)CCN(C[C@@H](C)C(C)(C)C(=O)O)CC1 [Compound 130] |  | 45.7 nM
18 | CO[C@H]1CC[C@H]([C@@H](CN2CCC(C(=O)Nc3ccc(Cl)cc3OC(F)F)(n3nccc3C(C)C)CC2)C(=O)O)CC1 [Compound 187, (2S)-3-[4-[[4-chloro-2-(difluoromethoxy)phenyl]carbamoyl]-4-(5-isopropylpyrazol-1-yl)-1-piperidyl]-2-((1r,4S)-4-methoxycyclohexyl) propanoic acid] |  | 75.9 nM
19 | CC(C)c1ccnn1C1(C(=O)Nc2ccc(Cl)cc2OC(F)F)CCN(C[C@@H](C(=O)O)C2COCCOC2)CC1 [Compound 215, (2S)-3-[4-[[4-chloro-2-(difluoromethoxy)phenyl]carbamoyl]-4-(5-isopropylpyrazol-1-yl)-1-piperidyl]-2-(1,4-dioxepan-6-yl)propanoic acid] |  | 18.5 nM
20 | CC(C)c1ccnn1C1(C(=O)Nc2ccc(Cl)cc2OC(F)F)CCN(CC2(C(=O)O)CCN(C(=O)CC3CCCC3)CC2)CC1 [Compound 47, 4-[[4-[[4-chloro-2-(difluoromethoxy)phenyl]carbamoyl]-4(5-isopropylpyrazol-1-yl)-1-piperidyl]methyl]-1-(2-cyclopentylacetyl) piperidine-4-carboxylic acid] |  | 14.8 nM
21 | CC(C)c1ccnn1C1(C(=O)Nc2ccc(Cl)cc2OC(F)F)CCN([C@H]2CO[C@H](C(=O)O)C2)CC1 (single isomer, unassigned) [Compound 140] |  | 132 nM
22 | CC(C)c1ccnn1C1(C(=O)Nc2ccc(Cl)cc2OC(F)F)CCN(CC2(C(=O)O)CCN(C(=O)C3CCC3)CC2)CC1 [Compound 44, 4-[[4-[[4-chloro-2-(difluoromethoxy)phenyl]carbamoyl]-4-(5-isopropylpyrazol-1-yl)-1-piperidyl]methyl]-1-(cyclobutanecarbonyl) piperidine-4-carboxylic acid] |  | 30.5 nM
23 | CC(C)c1c(Cl)cnn1C1(C(=O)Nc2ccc(Cl)cc2OC(F)F)CCN(C[C@@H](C(=O)O)C2CCOCC2)CC1 (single isomer, unassigned) [Compound 197] |  | 14 nM
24 | COCOCC(CN1CCC(C(=O)Nc2ccc(Cl)cc2OC(F)F)(n2nccc2C(C)C)CC1)C(=O)O (centres unmarked) [Compound 135, 2-[[4-[[4-chloro-2-(difluoromethoxy)phenyl]carbamoyl]-4-(5-isopropylpyrazol-1-yl)-1-piperidyl]methyl]-3-(methoxymethoxy) propanoic acid] |  | 76.9 nM
25 | CC(C)c1ccnn1C1(C(=O)Nc2ccc(Cl)cc2OC(F)F)CCN(CC(=O)O)CC1 [Compound 1, 2-[4-[[4-chloro-2-(difluoromethoxy)phenyl]carbamoyl]-4-(5-isopropylpyrazol-1-yl)-1-piperidyl]acetic acid] |  | 54.8 nM
26 | COC1(C(=O)O)CC(N2CCC(C(=O)Nc3ccc(Cl)cc3OC(F)F)(n3nccc3C(C)C)CC2)C1 (centres unmarked) [Compound 181, 3-[4-[[4-chloro-2-(difluoromethoxy)phenyl]carbamoyl]-4-(5-isopropylpyrazol-1-yl)-1-piperidyl]-1-methoxy-cyclobutanecarboxylic acid] |  | 87.7 nM
27 | CC(C)c1ccnn1C1(C(=O)Nc2ccc(Cl)cc2OC(F)F)CCN([C@H]2C[C@@](C#N)(C(=O)O)C2)CC1 [Compound 112, (1s,3s)-3-[4-[[4-chloro-2-(difluoromethoxy)phenyl]carbamoyl]-4-(5-isopropylpyrazol-1-yl)-1-piperidyl]-1-cyano-cyclobutanecarboxylic acid] |  | 309 nM
28 | CO[C@H]1CC[C@H]([C@H](CN2CCC(C(=O)Nc3ccc(Cl)cc3OC(F)F)(n3nccc3C(C)C)CC2)C(=O)O)CC1 (single isomer, unassigned) [Compound 185] |  | 57.4 nM
29 | CC(C)c1ccnn1C1(C(=O)Nc2ccc(Cl)cc2OC(F)F)CCN(C[C@H](C(=O)O)c2cnn(C)c2)CC1 (single isomer, unassigned) [Compound 154] |  | 64.1 nM
